Results as given in ChEMBL document CHEMBL5385948, “Glucose Uptake-Stimulating Metabolites from Aerial Parts of Centaurea sicula” (J Nat Prod, 2024).
Calls of active or inactive are those of the source. The calls are words filed in the database; no cut-off is given here.

Tests used:
[1] = tested on: HEK293; experiment: Induction of glucose uptake in HEK293 cells assessed as increase in 2-NBDG uptake at 3 uM incubated for 48 hrs followed by treated with 2-DG by fluorescence assay; format: functional, cell-based; settings: Homo sapiens
[2] = tested on: HEK293; experiment: Induction of glucose uptake in HEK293 cells assessed as increase in 2-NBDG uptake at 3 uM incubated for 48 hrs followed by treated with 2-DG in presence of EDTA by fluorescence assay; format: functional, cell-based; settings: Homo sapiens

Structure (SMILES)	Activity [1]	Activity [2]
C/C1=C\CC/C(CO)=C/[C@@H](O)[C@H]2[C@H](C1)OC(=O)[C@H]2C	Active	inactive
CC1(C)C(=O)O[C@]2(C)C=C1C[C@H](O)C2	Active	Active
C=C(C(=O)O[C@H]1C/C(C)=C/CC/C(CO)=C/[C@H]2OC(=O)[C@@H](C)[C@H]12)[C@@H](O)CO	Active	Active
COc1cc([C@@H]2OC[C@H]3C(=O)OC[C@H]32)ccc1O	Active	inactive
